# Experimental data taken from US20230414628A1, “METHODS FOR TREATING DISEASES MEDIATED BY GLUTATHIONE PEROXIDASE 4” (priority 2022, published 2023).
# Counter-ions that a name gives are not always drawn. Like-named read-outs stand apart in the source and are kept apart here.
# System: RAG01 (derived from fibroblasts of a patient diagnosed with SSMD) fibroblasts
# Test: CellTiter-Glo concentration response in RAG01 fibroblasts
# Type: cell-based, human
# Details: RAG01 cell line, 72 hours incubation, CellTiter-Glo, percentage effect normalized to vehicle control, 10-point CRC from 10 μM, read-out: EC50
# Description: Compounds described herein were tested in three cell lines, RAG01 (derived from fibroblasts of a patient diagnosed with SSMD) fibroblasts, RAG02 (derived from fibroblasts of the patient's parent), and GM09503 (from supplier Corriell) (derived from a healthy donor) to each generate 10-point concentration response curves (CRC). The three cell lines were each thawed seven (7) days prior to seeding. The RAG01 cells were thawed in a medium supplemented with a-tocopherol. Cells were passaged four (4) days prior to the seeding. The α-tocopherol was removed from the RAG01 cells. Cells were then seeded at 900 cells per well in 384-well plates. Two replicates were prepared for two independent (replicate) experiments. All plates were then incubated with compounds described herein for 72 hours, prior to CellTiter-Glo assay. […] The assay was run using the CellTiter-Glo (Promega) following manufacturer's guidelines and luminescent spectrophotometric reading on PHERAstar FSX (BMG Labtech). A 0.1% dimethylsulfoxide (DMSO) was used as a blank (vehicle control); and a 1 μM Ferrostatin-1 was used as a control (CTRL).
# The raw data was analyzed using Activity Base® software. The compounds were evaluated by efficacy (percentage effect) normalized to the vehicle control. The percentage effect (PE) was determined from the signal increase in comparison to the vehicle control according to the formula below: […]
# The percentage effect values were then plotted against log concentration of the drug to generate a concentration response curve. The curves were fitted using a four-parameter fit, and curve tops and hillslopes were fixed where required and justified.
SMILES,"EC50 (Homo sapiens, Fibroblast) [µM]",EC50 [µM]
"CC1=C(C(=O)OC(C)C)C(c2cccc([N+](=O)[O-])c2)C(C(=O)OC2CN(C(c3ccccc3)c3ccccc3)C2)=C(N)N1 (stereo not shown) [compound 1, azelnidipine]",3.12,
"COC(=O)C1=C(C)NC(C)=C(C(=O)OCCN2CCN(C(c3ccccc3)c3ccccc3)CC2)C1c1cccc([N+](=O)[O-])c1 (stereo not shown) [compound 2, manidipine]",2.9,
"Cc1c(-c2ccc(O)cc2)n(Cc2ccc(OCCN3CCCCCC3)cc2)c2ccc(O)cc12 [compound 3, bazedoxifene]",0.24,
"CN1CCN(c2ccc(C(=O)c3c(-c4ccc(O)cc4)sc4cc(O)ccc34)cc2)CC1 [compound 4, Y-134]",0.43,
"O=C(c1ccc(OCCN2CCCCC2)cc1)c1c(-c2ccc(O)cc2)sc2cc(O)ccc12 [compound 5, raloxifene]",0.458,
"CCCCCS(=O)(=O)CCCCCCCCCCn1c(-c2ccc(O)cc2)c(C)c2cc(O)ccc21 [compound 6, ZK-164015]",1.63,
"Brc1cc2c(cc1[C@@H]1Nc3ccccc3[C@@H]3C=CC[C@@H]31)OCO2 [compound 7, G-15]",1.66,
"CC(C)=CCc1c(O)cc(O)c2c(=O)c(O)c(-c3ccc(C(F)(F)F)cc3)oc12 [compound 8, SNG1153]",5.51,
"COc1ccc(Nc2ccn(-c3ccccc3)n2)cc1 [compound 9, FPL 62064]",0.053,
"O=C1c2ccccc2-n2c1nc1ccccc1c2=O [compound 10, trypthanthrin]",0.18,
"C=CCc1ccc(O)c(-c2ccc(O)c(CC=C)c2)c1 [compound 12, honokiol]",1.21,
CC1(S(=O)(=O)O)CC(=O)c2ccccc2C1=O (stereo not shown) [compound 13],1.57,
"COC1=C(OC)C(=O)C(CCCCCCCCCCO)=C(C)C1=O [compound 14, idebenone]",1.6,
"CC(c1cc2ccccc2s1)N(O)C(N)=O (stereo not shown) [compound 15, Zileuton]",1.87,
"O=c1c(O)c(-c2ccc(O)cc2)oc2cc(O)cc(O)c12 [compound 16, kaempferol]",3.21,
"CCNCc1cc(C(C)(C)C)c(O)c(C(C)(C)C)c1 [compound 17, LY 231617]",7.36,
"CC(=O)O[C@]1(C(C)=O)CC[C@H]2[C@@H]3CCC4=CC(=O)CCC4=C3[C@@H](c3ccc(N(C)C)cc3)C[C@@]21C [compound 18, ulipristal acetate]",2.34,
"C#C[C@]1(O)CC[C@H]2[C@@H]3CCc4cc(O)ccc4[C@H]3CC[C@@]21C [compound 19, ethinyl estradiol]",4.49,
"CC#C[C@]1(O)CC[C@H]2[C@@H]3CCC4=CC(=O)CCC4=C3[C@@H](c3ccc(N(C)C)cc3)C[C@@]21C [compound 20, Mifepristone]",2.27,
"Oc1ccc(/C=C/c2cc(O)cc(O)c2)cc1 [compound 22, resveratrol]",6.81,
"COc1cc(/C=C/c2ccc(O)cc2)cc(OC)c1 [compound 23, pterostilbene]",1.61,
"CC(Cc1ccc(O)c(O)c1)C(C)Cc1ccc(O)c(O)c1 (stereo not shown) [compound 24, Nordihydroguaiaretic acid]",2.49,

SMILES,"EC50 (Homo sapiens, Fibroblast) [µM]",EC50 [µM]
"COc1cc(C[C@H](C)[C@H](C)Cc2ccc3c(c2)OCO3)ccc1O [compound 25, macelignan]",2.86,
"CC(=O)Oc1c(C)cc(OCC(O)CNC(C)C)c(C)c1C (stereo not shown) [compound 26, metipranolol]",0.403,
"CC(C)NCC(O)COc1cccc2[nH]c3ccccc3c12 (stereo not shown) [compound 27, carazolol]",3.11,
"COc1ccccc1OCCNCC(O)COc1cccc2[nH]c3ccccc3c12 (stereo not shown) [compound 28, carvedilol]",4.91,
"CCc1cc2c(cc1CC)CC(NC[C@H](O)c1ccc(O)c3[nH]c(=O)ccc13)C2 [compound 29, indacaterol]",1.39,
"CC(=O)Oc1cc(C(C)C)c(OCCN(C)C)cc1C [compound 30, Moxisylyte]",0.739,
"Cc1cc(C(C)(C)C)c(O)c(C)c1CC1=NCCN1 [compound 31, oxymetazoline]",1.46,
"CN1CCN2c3c(cccc31)[C@@H]1CN(CCCC(=O)c3ccc(F)cc3)CC[C@@H]12 [compound 32, lumateperone]",0.636,
"Clc1ccc2c(c1)N=C(N1CCNCC1)c1ccccc1N2 [compound 34, desmethylclozapine]",2.66,
"CC(C)(C)[C@@]1(O)CCN2C[C@@H]3c4ccccc4CCc4cccc(c43)[C@H]2C1 [compound 35, butaclamol]",2.57,
"CN1CCc2cccc3c2[C@H]1Cc1ccc(O)c(O)c1-3 [compound 36, apomorphine]",0.14,
"Oc1cc2c(cc1O)C(c1ccccc1)CNCC2 (stereo not shown) [compound 38, SKF-38,393]",4.31,
"NC[C@@H]1O[C@H](C23CC4CC(CC(C4)C2)C3)Cc2c1ccc(O)c2O [compound 39, A77636]",,0.652
"CCCN(C/C=C/I)C1CCc2ccc(O)cc2C1 (stereo not shown) [compound 40, 7-hydroxy-PIPAT]",2.73,
"CCCN(CCc1cccs1)[C@H]1CCc2c(O)cccc2C1 [compound 41, rotigotine]",3.95,
"CCOC(=O)Nc1ccc2c(c1)N(C(=O)CCN(CC)CC)c1ccccc1S2 [compound 42, ethacizine]",0.478,
"CC(CN(C)C)CN1c2ccccc2Sc2ccc(C#N)cc21 (stereo not shown) [compound 43, cyamemazine]",1.39,
"OCCN1CCN(CCCN2c3ccccc3Sc3ccc(Cl)cc32)CC1 [compound 44, perphenazine]",1.41,
"O=C(CN1CCN(Cc2ccc3c(c2)OCO3)CC1)N1c2ccccc2Sc2ccccc21 [compound 46, fenoverine]",1.5,
"CC(CN(C)C)CN1c2ccccc2Sc2ccccc21 (stereo not shown) [compound 47, trimeprazine]",1.67,
"CN1CCCC(CN2c3ccccc3Sc3ccccc32)C1 (stereo not shown) [compound 48, mepazine]",1.84,
"COc1ccc2c(c1)N(C[C@H](C)CN(C)C)c1ccccc1S2 [compound 49, Levomepromazine]",3.21,

SMILES,"EC50 (Homo sapiens, Fibroblast) [µM]",EC50 [µM]
"COc1ccc2cccc(N3CCN(CCNC(=O)c4ccc(F)cc4)CC3)c2c1 [compound 50, S-14,506]",0.928,
"Cc1[nH]c2ccc(Cl)cc2c1C1=CCNCC1 [compound 51, EMD-386088]",1.35,
"CCCN(C/C=C/I)C1CCc2cccc(O)c2C1 (stereo not shown) [compound 52, 8-hydroxy-PIPAT]",2.38,
"COc1ccc(CC2NCCc3c2[nH]c2ccc(C)cc32)c(Cl)c1OC (stereo not shown) [compound 53, LY-266,097]",2.71,
"Oc1ccc2c3c1OC1c4c(c5ccccc5n4Cc4ccccc4)C[C@@]4(O)C(C2)N(CC2CC2)CC[C@]314 (stereo partly shown) [compound 54, N-Benzylnaltrindole HCl]",0.381,
"Oc1ccc2c3c1O[C@H]1c4oc5ccccc5c4C[C@@]4(O)[C@@H](C2)N(CC2CC2)CC[C@]314 [compound 55, Naltriben]",1.32,
"C=C(C)CN1CC[C@]23c4c5ccc(O)c4OC2c2[nH]c4ccccc4c2C[C@@]3(O)[C@H]1C5 (stereo partly shown) [compound 56, SDM25N]",1.41,
"Oc1ccc2c3c1O[C@H]1c4[nH]c5ccccc5c4C[C@@]4(O)[C@@H](C2)N(CC2CC2)CC[C@]314 [compound 57, Naltrindole]",2.41,
"CC(C)(CO)Cc1cc(C(C)(C)C)c(O)c(C(C)(C)C)c1 [compound 58, 2,6-ditert-butyl-4-(3-hydroxy-2,2-dimethylpropyl)phenol]",0.35,
"CC(C)(C=O)Cc1cc(C(C)(C)C)c(O)c(C(C)(C)C)c1 [compound 59, 3-(3,5-Ditert-butyl-4-hydroxyphenyl)-2,2-dimethylpropanal]",0.928,
"Brc1ccc(NC2C3CC4CC(C3)CC2C4)cc1 (stereo not shown) [compound 60, bromantane]",0.429,
"COc1cc2c(cc1O)C(CCc1ccc(Cl)cc1)N(C)CC2 (stereo not shown) [compound 61, Ro 04-5595]",0.652,
"COc1ccc2c(c1)CN(C)CC2c1ccc(Cl)c(Cl)c1 (stereo not shown) [compound 62, Diclofensine]",3.85,
"CO[C@H]1/C=C/O[C@@]2(C)Oc3c(C)c(O)c4c(O)c(c5c(nc6cc(C)ccn65)c4c3C2=O)NC(=O)/C(C)=C\C=C\[C@H](C)[C@H](O)[C@@H](C)[C@@H](O)[C@@H](C)[C@H](OC(C)=O)[C@@H]1C [compound 64, rifaximin]",0.708,
"CC(C)(C)CC(C)(C)c1ccc(O)c(Cc2ccc(Cl)cc2Cl)c1 [compound 65, clofoctol]",2.23,
"O=C1NC(=O)c2cc(Nc3ccccc3)c(Nc3ccccc3)cc21 [compound 66, CGP 52411]",0.202,
"C=CC(=O)Nc1cc(Nc2nccc(-c3cn(C)c4ccccc34)n2)c(OC)cc1N(C)CCN(C)C [compound 67, osimertinib]",0.245,
"C=CC(=O)Nc1cccc(Nc2nc(Nc3ccc(NC4CN(CCF)C4)cc3OC)ncc2C(F)(F)F)c1 [compound 68, CNX-2006]",0.366,
"C=CC(=O)Nc1cccc(Oc2nc(Nc3ccc(N4CCN(C)CC4)cc3)nc3ccsc23)c1 [compound 70, Olmutinib]",0.485,
"CS(=O)(=O)CCNCc1ccc(-c2ccc3ncnc(Nc4ccc(OCc5cccc(F)c5)c(Cl)c4)c3c2)o1 [compound 71, lapatinib]",5.13,
